In brackets after ≈: the same amount, converted by molar mass. Read-outs that look alike come from different tables or passages of the source.
Columns and labels:
Porphyromonas = experiment: Geometric mean MIC of anaerobic bacteria isolated from dogs and cats (in vitro); type: cell-based; conditions: N=8, isolated from dogs and cats, two in vitro studies, read-out: GMIC (geometric mean of the MIC values)
Text: (§1) Results of In Vitro Studies Geometric mean of the MIC values (Geometric Mean MIC; GMIC) of anaerobic bacteria isolated from dogs and cats compared to the standard metronidazole (μg/ml).

Prevotella = experiment: as above; type: cell-based; conditions: N=25, isolated from dogs and cats, two in vitro studies, read-out: GMIC (geometric mean of the MIC values)
Text: as §1

Fusobacterium = experiment: as above; type: cell-based; conditions: N=11, isolated from dogs and cats, two in vitro studies, read-out: GMIC (geometric mean of the MIC values)
Text: as §1

Peptostreptococcus = experiment: as above; type: cell-based; conditions: N=4, isolated from dogs and cats, two in vitro studies, read-out: GMIC (geometric mean of the MIC values)
Text: as §1

Bacteroides = experiment: as above; type: cell-based; conditions: N=37, isolated from dogs and cats, two in vitro studies, read-out: GMIC (geometric mean of the MIC values)
Text: as §1

parodontitis = experiment: Clinical study for the indication parodontitis; type: in vivo; conditions: female beagles, 3 mg/kg once per day for seven days
Experimental: Clinical Study for the Indication Parodontitis
The study was carried out using 16 female beagles. Pradofloxacin was administered in a dose of 3 mg/kg once per day over a period of seven days.

[1] = tested on: Actinobacillus actinomycetemcomitans; experiment: In vitro MIC, parodontitis-causing bacteria; type: cell-based; conditions: Aggregatibacter actinomycetemcomitans, two strains
Experimental: (§2) In this study, in each case two strains of the parodontitis-causing bacteria were isolated, and their sensitivity to pradofloxacin was determined in vitro (MIC μg/ml).

Prevotella intermedia = experiment: In vitro MIC, parodontitis-causing bacteria; type: cell-based; conditions: two strains
Experimental: as §2

Porphyromonas canons = experiment: In vitro MIC, parodontitis-causing bacteria; type: cell-based; conditions: two strains
Experimental: as §2

[2] = tested on: Porphyromonas cangingivalis; experiment: In vitro MIC, parodontitis-causing bacteria; type: cell-based; conditions: two strains
Experimental: as §2

Capnocytophaga ochracea = experiment: In vitro MIC, parodontitis-causing bacteria; type: cell-based; conditions: two strains
Experimental: as §2

Porphyromonas cansulci = experiment: In vitro MIC, parodontitis-causing bacteria; type: cell-based; conditions: Porphyromonas crevioricanis, two strains
Experimental: as §2

Porphyromonas gingivalis = experiment: In vitro MIC, parodontitis-causing bacteria; type: cell-based; conditions: two strains
Experimental: as §2

Eikenella corrodens = experiment: In vitro MIC, parodontitis-causing bacteria; type: cell-based; conditions: two strains
Experimental: as §2

Campylobacter rectus = experiment: In vitro MIC, parodontitis-causing bacteria; type: cell-based; conditions: two strains
Experimental: as §2

Fusobacterium nucleatum = experiment: In vitro MIC, parodontitis-causing bacteria; type: cell-based; conditions: two strains
Experimental: as §2

Compound	MIC (Porphyromonas)	MIC (Prevotella)	MIC (Fusobacterium)	MIC (Peptostreptococcus)	MIC (Bacteroides)	total number of anaerobic bacteria in the periodontal pockets (parodontitis; after the treatment had ended, p<0.0001)	periodontal pocket depth (loss of attachment) (parodontitis; p=0.02)	total number of anaerobic bacteria in the periodontal pockets (parodontitis; three weeks after the treatment, day 28, p=0.0007)	MIC [1]	MIC (Prevotella intermedia)	MIC (Porphyromonas canons)	MIC [2]	MIC ([2]; read-out: MIC)	MIC (Capnocytophaga ochracea)	MIC (Porphyromonas cansulci)	MIC (Porphyromonas gingivalis)	MIC (Eikenella corrodens)	MIC (Campylobacter rectus)	MIC (Fusobacterium nucleatum)	MIC (Fusobacterium nucleatum; read-out: MIC)
Cc1ncc([N+](=O)[O-])n1CCO [metronidazole, reference compound]	0.3 µg/mL	0.4 µg/mL	1 µg/mL	0.8 µg/mL	0.7 µg/mL	–	–	–	–	–	–	–	–	–	–	–	–	–	–	–
N#Cc1c(N2C[C@@H]3CCCN[C@@H]3C2)c(F)cc2c(=O)c(C(=O)O)cn(C3CC3)c12 [pradofloxacin, 8-cyano-1-cyclopropyl-7-((1S,6S)-2,8-diazabicyclo[4.3.0]nonan-8-yl)-6-fluoro-1,4-dihydro-4-oxo-3-quinolinecarboxylic acid]	0.1 µg/mL	0.2 µg/mL	0.5 µg/mL	0.4 µg/mL	0.4 µg/mL	reduced significantly	significant reduction	reduced significantly	< 0.25 µg/mL	< 0.25 µg/mL	< 0.25 µg/mL	1 µg/mL (≈ 2.52 µM)	0.5 µg/mL (≈ 1.26 µM)	< 0.25 µg/mL	< 0.25 µg/mL	< 0.25 µg/mL	< 0.25 µg/mL	< 0.25 µg/mL	1 µg/mL (≈ 2.52 µM)	0.5 µg/mL (≈ 1.26 µM)
